One series has as its target T1, CYP1A2 (Homo sapiens, UniProt P05177).
T1 construct: from tissue; host or cells: human liver microsomes (pooled in the time-dependent assay)
T1 sequence (P05177 1-516): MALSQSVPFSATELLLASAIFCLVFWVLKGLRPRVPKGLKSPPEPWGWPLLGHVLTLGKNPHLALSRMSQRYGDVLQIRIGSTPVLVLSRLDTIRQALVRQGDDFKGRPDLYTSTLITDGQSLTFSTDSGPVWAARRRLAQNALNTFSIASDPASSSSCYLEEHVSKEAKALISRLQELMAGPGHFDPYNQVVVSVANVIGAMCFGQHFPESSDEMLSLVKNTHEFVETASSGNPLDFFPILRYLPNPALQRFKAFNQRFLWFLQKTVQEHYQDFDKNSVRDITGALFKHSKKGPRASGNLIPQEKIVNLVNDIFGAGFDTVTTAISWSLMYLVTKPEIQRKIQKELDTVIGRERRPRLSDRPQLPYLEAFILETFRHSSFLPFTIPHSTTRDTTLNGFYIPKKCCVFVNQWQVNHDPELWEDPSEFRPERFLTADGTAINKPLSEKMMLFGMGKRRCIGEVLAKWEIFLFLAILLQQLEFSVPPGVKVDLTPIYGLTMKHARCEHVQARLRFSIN
Description: time dependent inhibition of CYP450 in pooled human microsomes. In kind it is in vitro ADME. The protocol:
(§1) Time dependent inhibition: An assessment of the time-dependent Inhibitory potential of test compounds against the principal human cytochrome P450 isozymes was carried out using standard methods (Grimm et al, “The Conduct of in Vitro Studies to Address Time-Dependent Inhibition of Drug-Metabolizing Enzymes: A Perspective of the Pharmaceutical Research and Manufacturers of America”, Drug Metabolism and Disposition, 37 (7): 1355, 2009). […] Each compound was pre-incubated at 37° C. plus and minus NADPH for 30 min, and with 0 min pre-incubation for assessment of potential time dependent inhibition. LC-MS/MS was used to quantify metabolite formation. […] Note that, in Tables 8 and 9, the “Compound No” corresponds to the compound numbers in Table 1.

The target of a further series is T2, CYP2C9 (Homo sapiens, UniProt P11712).
T2 construct: from tissue; host or cells: human liver microsomes (pooled in the time-dependent assay)
T2 sequence (P11712 whole entry): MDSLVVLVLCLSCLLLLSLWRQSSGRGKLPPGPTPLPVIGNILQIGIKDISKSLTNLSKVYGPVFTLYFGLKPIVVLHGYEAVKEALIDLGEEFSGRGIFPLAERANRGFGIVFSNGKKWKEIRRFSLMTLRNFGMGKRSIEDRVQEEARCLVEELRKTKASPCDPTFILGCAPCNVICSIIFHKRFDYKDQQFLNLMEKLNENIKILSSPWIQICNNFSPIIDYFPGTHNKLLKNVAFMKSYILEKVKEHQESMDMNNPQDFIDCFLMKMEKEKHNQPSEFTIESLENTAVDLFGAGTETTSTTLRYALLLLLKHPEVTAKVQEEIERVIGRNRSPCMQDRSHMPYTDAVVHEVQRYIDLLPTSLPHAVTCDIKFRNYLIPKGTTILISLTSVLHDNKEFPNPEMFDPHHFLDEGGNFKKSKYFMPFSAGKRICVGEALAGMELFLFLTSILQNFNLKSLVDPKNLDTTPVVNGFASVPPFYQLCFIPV
Described as above. In kind it is in vitro ADME. The protocol: as §1

For a further series, the target named is T3, CYP3A4 (Homo sapiens, UniProt P08684).
T3 construct: from tissue; host or cells: human liver microsomes (pooled in the time-dependent assay)
T3 sequence (P08684 whole entry): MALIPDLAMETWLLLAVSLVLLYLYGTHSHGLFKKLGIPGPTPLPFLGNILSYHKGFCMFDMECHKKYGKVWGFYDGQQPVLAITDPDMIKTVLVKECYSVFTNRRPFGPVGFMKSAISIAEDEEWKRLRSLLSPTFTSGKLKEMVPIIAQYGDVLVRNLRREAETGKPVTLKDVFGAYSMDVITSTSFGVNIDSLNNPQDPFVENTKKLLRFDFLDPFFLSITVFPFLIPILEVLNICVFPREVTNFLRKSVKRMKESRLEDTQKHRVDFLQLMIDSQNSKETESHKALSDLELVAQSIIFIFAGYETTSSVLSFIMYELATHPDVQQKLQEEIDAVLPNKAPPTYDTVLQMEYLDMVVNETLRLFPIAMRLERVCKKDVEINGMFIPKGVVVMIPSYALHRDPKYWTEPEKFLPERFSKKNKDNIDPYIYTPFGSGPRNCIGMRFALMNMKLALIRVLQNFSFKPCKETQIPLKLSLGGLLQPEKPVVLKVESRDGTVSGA
The series is described as above. It is filed as in vitro ADME. The method, then: as §1

A further series deals with T4, CYP2C8 (Homo sapiens, UniProt P10632).
T4 construct: Pooled human microsomes and selective CYP probe substrates were used; from tissue; host or cells: pooled human (hepatic) microsomes
T4 sequence (P10632 1-490): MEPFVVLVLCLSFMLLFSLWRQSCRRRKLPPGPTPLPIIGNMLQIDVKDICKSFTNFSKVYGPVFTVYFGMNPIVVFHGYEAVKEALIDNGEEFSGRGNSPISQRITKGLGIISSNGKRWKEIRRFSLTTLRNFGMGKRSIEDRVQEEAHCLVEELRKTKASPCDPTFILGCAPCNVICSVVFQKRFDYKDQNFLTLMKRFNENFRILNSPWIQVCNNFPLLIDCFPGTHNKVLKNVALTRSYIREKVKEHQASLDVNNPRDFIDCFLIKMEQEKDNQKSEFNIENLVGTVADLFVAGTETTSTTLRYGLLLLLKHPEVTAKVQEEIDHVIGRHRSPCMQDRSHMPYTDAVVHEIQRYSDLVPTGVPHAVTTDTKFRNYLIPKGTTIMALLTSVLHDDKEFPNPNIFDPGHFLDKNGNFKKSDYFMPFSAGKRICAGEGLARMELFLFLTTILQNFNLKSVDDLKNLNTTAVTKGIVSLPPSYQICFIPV
Described as above. It is filed as in vitro ADME. The protocol: as §1

Series [1] deals with nicotinamide levels in mouse tissues. Put plainly: tissue levels of nicotinamide in aged C57BL/6 mice after oral administration. It is filed as in vivo. To be noted: 100 mg/kg BID oral, 72-week-old male C57BL/6J mice, 4 h after the 3rd administration, vs vehicle, FIG. 1. The protocol:
0.1% Tween 80/0.5% HPMC or compound 148 prepared with 0.1% Tween 80/0.5% HPMC was orally administered at 100 mg/kg BID to 72-week-old male C57BL/6J mice. 4 h after the 3rd administration, each mouse was euthanized, and tissues collected.
Whole blood was collected and placed into pre-chilled K2EDTA microtainer tube, rotated 3-4 times to ensure anticoagulant mixing. An aliquot from the whole blood collection was added to 10 volumes of 0.5M PCA (perchloric acid), inverted 3-4 times to mix well, and then frozen on dry ice. While under isoflurane after cardiac puncture for blood collection, the following tissues were harvested in this order: heart, liver lobe, then by brain. All tissues were processed using pre-chilled freeze clamp. The frozen tissues were placed in pre-frozen labeled 2 mL Eppendorf tubes. The tissues were stored at −80° C. until processing. Upon processing, each tissue was cryomilled in the frozen state to form a powder. Frozen powdered tissue was weighed into pre-frozen tubes. Approximately 10 volumes of 0.5M PCA per weight of tissue were added to the tube followed by freezing until analysis. Upon analysis, blood and tissue samples were thawed on ice, followed by homogenization via TissueLyzer. Samples were centrifuged, the supernatant was collected and filtered, and the nicotinamide concentration in the supernatant of sample was measured using LC/MS.

[2] abbreviates: between 30 min pre-incubation plus NADPH and 0 min.
Setting [3] is: pre-incubation 30 min (NO NADPH).

Like-named read-outs stand apart in the source and are kept apart here.

What is called IC50 is the concentration at which inhibition is half-maximal.

For the compound `CO[C@H]1CC[C@H](NC(=O)c2nccc(-c3cncn3C)n2)CC1` [Compound 148, N-((1r,4r)-4-methoxycyclohexyl)-4-(1-methyl-1H-imidazol-5-yl)pyrimidine-2-carboxamide], the concentration for half-maximal inhibition (IC50) at CYP1A2 (0 min pre-incubation, pooled human microsomes, read-out: IC50 CYP1A2 (reversible inhibition)) was 10 µM; at CYP1A2 (pre-incubation 30 min (NADPH), read-out: CYP1A2 IC50), 11.8 µM; on CYP1A2 (pre-incubation 30 min (NO NADPH), read-out: CYP1A2 IC50), 12 µM; at CYP2C9 (pre-incubation 0 min) it was greater than 30 µM; against CYP2C9 (pre-incubation 30 min (NADPH)), greater than 30 µM; against CYP2C9 (setting [3]), greater than 30 µM. The half-inhibitory concentration (IC50) at CYP3A4 (pre-incubation 0 min, read-out: CYP3A4-M IC50) was greater than 30 µM; on CYP3A4 (pre-incubation 0 min, read-out: CYP3A4-T IC50), greater than 30 µM; at CYP3A4 (pre-incubation 30 min (NADPH), read-out: CYP3A4-M IC50), greater than 30 µM; at CYP3A4 (pre-incubation 30 min (NADPH), read-out: CYP3A4-T IC50) it was greater than 30 µM; at CYP3A4 (pre-incubation 30 min (NO NADPH), read-out: CYP3A4-M IC50), greater than 30 µM; at CYP3A4 (pre-incubation 30 min (NO NADPH), read-out: CYP3A4-T IC50), greater than 30 µM. Moreover, the half-maximal inhibitory concentration (IC50) on CYP2C8 (pre-incubation 0 min), on CYP2C8 (pre-incubation 30 min (NADPH)) and on CYP2C8 (setting [3]) was greater than 30 µM each time. Besides, the “CYP1A2 IC50 fold shift” value on CYP1A2 (setting [2]) amounted to 0.8. For the same compound, the “CYP2C9 IC50 fold shift” value at CYP2C9 (setting [2]) was “none”. The “CYP3A4-M IC50 fold shift” value on CYP3A4 (setting [2]) was “none”. In addition, the “CYP3A4-T IC50 fold shift” value on CYP3A4 (setting [2]) was “none”. For the same compound, at CYP2C8 (setting [2]), the “CYP2C8 IC50 fold shift” value is listed as “none”. Besides, in series [1] (blood), the “nicotinamide levels in blood” value is on record as “decreased”. The “nicotinamide levels in brain” value in series [1] (brain) is reported as “decreased”. In addition, the “nicotinamide levels in heart” value in series [1] (heart) was “decreased”. Also, in series [1] (liver), the “nicotinamide levels in liver” value was “decreased”.

For the origin of these results see patent US20230116972A1, “CD38 MODULATORS AND METHODS OF USE THEREOF” (Cytokinetics, Inc., priority 2021, published 2023).
